Source: PubChem BioAssay (NCI)
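At the GI50, growth is halved. At the TGI there is no net growth.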

Columns and labels:
Assay in all cases: NCI anticancer screen, dose series, 384-well format
COLO 205 colon = test system: COLO 205 colon
K-562 leukemia = test system: K-562 leukemia
RPMI-8226 leukemia = test system: RPMI-8226 leukemia
NCI/ADR-RES ovarian = test system: NCI/ADR-RES ovarian
SN12C renal = test system: SN12C renal
T-47D breast = test system: T-47D breast
NCI-H522 lung = test system: NCI-H522 lung
SNB-75 CNS = test system: SNB-75 CNS
UACC-257 melanoma = test system: UACC-257 melanoma
HCT-15 colon = test system: HCT-15 colon
SF-539 CNS = test system: SF-539 CNS
A498 renal = test system: A498 renal
HOP-62 NSCLC = test system: HOP-62 NSCLC
SR leukemia = test system: SR leukemia
EKVX NSCLC = test system: EKVX NSCLC
IGROV1 ovarian = test system: IGROV1 ovarian
SF-268 CNS = test system: SF-268 CNS
SNB-19 CNS = test system: SNB-19 CNS
UO-31 renal = test system: UO-31 renal
HOP-92 NSCLC = test system: HOP-92 NSCLC
786-0 renal = test system: 786-0 renal
DU-145 prostate = test system: DU-145 prostate
NCI-H322M lung = test system: NCI-H322M lung
NCI-H460 NSCLC = test system: NCI-H460 NSCLC
OVCAR-5 ovarian = test system: OVCAR-5 ovarian
CAKI-1 renal = test system: CAKI-1 renal
MDA-MB-231 breast = test system: MDA-MB-231 breast
MALME-3M melanoma = test system: MALME-3M melanoma
SF-295 CNS = test system: SF-295 CNS
SK-OV-3 ovarian = test system: SK-OV-3 ovarian
UACC-62 melanoma = test system: UACC-62 melanoma
HT29 colon = test system: HT29 colon
M14 melanoma = test system: M14 melanoma
TK-10 renal = test system: TK-10 renal
A549 NSCLC = test system: A549 NSCLC
SK-MEL-5 melanoma = test system: SK-MEL-5 melanoma
NCI-H226 lung = test system: NCI-H226 lung
OVCAR-3 ovarian = test system: OVCAR-3 ovarian
HCT-116 colon = test system: HCT-116 colon
BT-549 breast = test system: BT-549 breast
SK-MEL-2 melanoma = test system: SK-MEL-2 melanoma
MCF7 breast = test system: MCF7 breast
HS 578T breast = test system: HS 578T breast
MOLT-4 leukemia = test system: MOLT-4 leukemia
RXF 393 renal = test system: RXF 393 renal
MDA-MB-435 melanoma = test system: MDA-MB-435 melanoma
SW-620 colon = test system: SW-620 colon
CCRF-CEM leukemia = test system: CCRF-CEM leukemia
MDA-MB-468 breast = test system: MDA-MB-468 breast
PC-3 prostate = test system: PC-3 prostate
OVCAR-4 ovarian = test system: OVCAR-4 ovarian
NCI-H23 lung = test system: NCI-H23 lung
HL-60(TB) leukemia = test system: HL-60(TB) leukemia
HCC-2998 colon = test system: HCC-2998 colon
KM12 colon = test system: KM12 colon
LOX IMVI melanoma = test system: LOX IMVI melanoma
SK-MEL-28 melanoma = test system: SK-MEL-28 melanoma
OVCAR-8 ovarian = test system: OVCAR-8 ovarian
U251 glioblastoma = test system: U251 glioblastoma
ACHN renal = test system: ACHN renal

## CO[C@@H](C)Cn1c(=O)n(C)c2cnc3ccc(-c4cncc(C(C)(C)O)c4)cc3c21
COLO 205 colon
  GI50: 186 nM
  TGI: 1480 nM
K-562 leukemia
  GI50: 162 nM
  TGI: 11800 nM
RPMI-8226 leukemia
  GI50: 28.2 nM
  TGI: 78.8 nM
NCI/ADR-RES ovarian
  GI50: 2150 nM
  TGI: 15400 nM
SN12C renal
  GI50: 84.9 nM
  TGI: 3570 nM
T-47D breast
  GI50: 77.1 nM
  TGI: 406 nM
NCI-H522 lung
  GI50: 104 nM
  TGI: 1630 nM
SNB-75 CNS
  GI50: 44 nM
  TGI: 502 nM
UACC-257 melanoma
  GI50: 429 nM
  TGI: 2700 nM
HCT-15 colon
  GI50: 154 nM
  TGI: 12500 nM
SF-539 CNS
  GI50: 141 nM
  TGI: 1970 nM
A498 renal
  GI50: 33 nM
  TGI: 374 nM
HOP-62 NSCLC
  GI50: 109 nM
  TGI: 1340 nM
SR leukemia
  GI50: 20.2 nM
  TGI: 55 nM
EKVX NSCLC
  GI50: 96.1 nM
  TGI: 885 nM
IGROV1 ovarian
  GI50: 35 nM
  TGI: 173 nM
SF-268 CNS
  GI50: 293 nM
  TGI: 1770 nM
SNB-19 CNS
  GI50: 334 nM
  TGI: 12600 nM
UO-31 renal
  GI50: 122 nM
  TGI: 6310 nM
HOP-92 NSCLC
  GI50: 150 nM
  TGI: 702 nM
786-0 renal
  GI50: 133 nM
  TGI: 4550 nM
DU-145 prostate
  GI50: 84.6 nM
  TGI: 2690 nM
NCI-H322M lung
  GI50: 139 nM
  TGI: 2300 nM
NCI-H460 NSCLC
  GI50: 45.1 nM
  TGI: 1570 nM
OVCAR-5 ovarian
  GI50: 206 nM
  TGI: 1690 nM
CAKI-1 renal
  GI50: 76.1 nM
  TGI: 485 nM
MDA-MB-231 breast
  GI50: 57.1 nM
  TGI: 20600 nM
MALME-3M melanoma
  GI50: 62.6 nM
  TGI: 327 nM
SF-295 CNS
  GI50: 57 nM
  TGI: 413 nM
SK-OV-3 ovarian
  GI50: 88.4 nM
  TGI: 1010 nM
UACC-62 melanoma
  GI50: 102 nM
  TGI: 719 nM
HT29 colon
  GI50: 226 nM
  TGI: 11100 nM
M14 melanoma
  GI50: 151 nM
  TGI: 1850 nM
TK-10 renal
  GI50: 220 nM
  TGI: 907 nM
A549 NSCLC
  GI50: 70.7 nM
  TGI: 1180 nM
SK-MEL-5 melanoma
  GI50: 157 nM
  TGI: 463 nM
NCI-H226 lung
  GI50: 109 nM
  TGI: 667 nM
OVCAR-3 ovarian
  GI50: 84.6 nM
  TGI: 894 nM
HCT-116 colon
  GI50: 390 nM
  TGI: 1770 nM
BT-549 breast
  GI50: 96.2 nM
  TGI: 503 nM
SK-MEL-2 melanoma
  GI50: 243 nM
  TGI: 592 nM
MCF7 breast
  GI50: 71.1 nM
  TGI: 1670 nM
HS 578T breast
  GI50: 35.7 nM
  TGI: 217 nM
MOLT-4 leukemia
  GI50: 81.2 nM
  TGI: 299 nM
RXF 393 renal
  GI50: 54.6 nM
  TGI: 1370 nM
MDA-MB-435 melanoma
  GI50: 194 nM
  TGI: 2360 nM
SW-620 colon
  GI50: 197 nM
  TGI: 1360 nM
CCRF-CEM leukemia
  GI50: 77.9 nM
  TGI: 707 nM
MDA-MB-468 breast
  GI50: 165 nM
  TGI: 574 nM
PC-3 prostate
  GI50: 84.2 nM
  TGI: 740 nM
OVCAR-4 ovarian
  GI50: 126 nM
  TGI: 722 nM
NCI-H23 lung
  GI50: 319 nM
  TGI: 2600 nM
HL-60(TB) leukemia
  GI50: 463 nM
  TGI: 1610 nM
HCC-2998 colon
  GI50: 188 nM
  TGI: 2110 nM
KM12 colon
  GI50: 136 nM
  TGI: 12900 nM
LOX IMVI melanoma
  GI50: 78.2 nM
  TGI: 918 nM
SK-MEL-28 melanoma
  GI50: 221 nM
  TGI: 3480 nM
OVCAR-8 ovarian
  GI50: 86.8 nM
  TGI: 11200 nM
U251 glioblastoma
  GI50: 221 nM
  TGI: 3460 nM

## Cc1ccc(NC(=O)c2ccc(CN3CC[C@H](N(C)C)C3)c(C(F)(F)F)c2)cc1Nc1nccc(-c2cncnc2)n1
COLO 205 colon
  GI50: 396 nM
  TGI: 1780 nM
RPMI-8226 leukemia
  GI50: 1340 nM
  TGI: 2620 nM
NCI/ADR-RES ovarian
  GI50: 3880 nM
  TGI: 13300 nM
SN12C renal
  GI50: 2580 nM
  TGI: 6550 nM
T-47D breast
  GI50: 1530 nM
  TGI: 3060 nM
NCI-H522 lung
  GI50: 1520 nM
  TGI: 3400 nM
ACHN renal
  GI50: 1840 nM
  TGI: 4100 nM
UACC-257 melanoma
  GI50: 430 nM
  TGI: 1760 nM
HCT-15 colon
  GI50: 2490 nM
  TGI: 5660 nM
SF-539 CNS
  GI50: 1430 nM
  TGI: 2750 nM
A498 renal
  GI50: 2690 nM
  TGI: 6220 nM
HOP-62 NSCLC
  GI50: 2190 nM
  TGI: 6540 nM
SR leukemia
  GI50: 1820 nM
  TGI: 3230 nM
IGROV1 ovarian
  GI50: 3680 nM
  TGI: 13900 nM
SF-268 CNS
  GI50: 2720 nM
  TGI: 6990 nM
SNB-19 CNS
  GI50: 4560 nM
  TGI: 13600 nM
UO-31 renal
  GI50: 2000 nM
  TGI: 4130 nM
HOP-92 NSCLC
  GI50: 1640 nM
  TGI: 3140 nM
786-0 renal
  GI50: 1890 nM
  TGI: 3470 nM
DU-145 prostate
  GI50: 6800 nM
  TGI: 18900 nM
NCI-H322M lung
  GI50: 3920 nM
  TGI: 12800 nM
NCI-H460 NSCLC
  GI50: 1670 nM
  TGI: 3350 nM
OVCAR-5 ovarian
  GI50: 1860 nM
  TGI: 4570 nM
CAKI-1 renal
  GI50: 2860 nM
  TGI: 6720 nM
MDA-MB-231 breast
  GI50: 1750 nM
  TGI: 3240 nM
MALME-3M melanoma
  GI50: 147 nM
  TGI: 436 nM
SF-295 CNS
  GI50: 1900 nM
  TGI: 3420 nM
SK-OV-3 ovarian
  GI50: 2090 nM
  TGI: 4530 nM
UACC-62 melanoma
  GI50: 318 nM
  TGI: 1290 nM
HT29 colon
  GI50: 947 nM
  TGI: 2190 nM
M14 melanoma
  GI50: 233 nM
  TGI: 811 nM
TK-10 renal
  GI50: 2200 nM
  TGI: 4710 nM
A549 NSCLC
  GI50: 3010 nM
  TGI: 10900 nM
SK-MEL-5 melanoma
  GI50: 674 nM
  TGI: 1990 nM
NCI-H226 lung
  GI50: 2090 nM
  TGI: 5070 nM
OVCAR-3 ovarian
  GI50: 2400 nM
  TGI: 5420 nM
HCT-116 colon
  GI50: 1380 nM
  TGI: 2740 nM
BT-549 breast
  GI50: 3960 nM
  TGI: 10000 nM
SK-MEL-2 melanoma
  GI50: 1200 nM
  TGI: 2460 nM
MCF7 breast
  GI50: 2310 nM
  TGI: 7760 nM
MOLT-4 leukemia
  GI50: 1780 nM
  TGI: 3170 nM
RXF 393 renal
  GI50: 1520 nM
  TGI: 3220 nM
MDA-MB-435 melanoma
  GI50: 1050 nM
  TGI: 3510 nM
SW-620 colon
  GI50: 3080 nM
  TGI: 10600 nM
CCRF-CEM leukemia
  GI50: 1990 nM
  TGI: 3440 nM
MDA-MB-468 breast
  GI50: 2180 nM
  TGI: 3660 nM
PC-3 prostate
  GI50: 3380 nM
  TGI: 8450 nM
OVCAR-4 ovarian
  GI50: 2430 nM
  TGI: 6600 nM
NCI-H23 lung
  GI50: 2060 nM
  TGI: 7780 nM
HL-60(TB) leukemia
  GI50: 433 nM
  TGI: 1310 nM
HCC-2998 colon
  GI50: 1160 nM
  TGI: 2640 nM
KM12 colon
  GI50: 2510 nM
  TGI: 5920 nM
LOX IMVI melanoma
  GI50: 1030 nM
  TGI: 2220 nM
SK-MEL-28 melanoma
  GI50: 304 nM
  TGI: 1130 nM
OVCAR-8 ovarian
  GI50: 2190 nM
  TGI: 5300 nM
U251 glioblastoma
  GI50: 1950 nM
  TGI: 3760 nM
